{"source": "patent US12403129B2", "about": "“Isotope-enriched 3-amino-1-propanesulfonic acid derivatives for the treatment of cerebrovascular disease” (RISEN (SUZHOU) PHARMA TECH CO., LTD., priority 2021, dated 2025)", "origin": "cited, not measured here", "settings": "cited from earlier work", "key": {"[1]": {"settings": "2-h time point, oral, 0.72 mmol/kg"}}, "note": "Entries after “also recorded” stand apart in the source; their conditions may differ.", "data": [{"smiles": "[2H]C([2H])(N)CCS(=O)(=O)O", "note": "[compound 1, 3-amino-3,3-dideuterium-1-propanesulfonic Acid]", "values": [{"measurement": "concentration of metabolite (2-carboxy-1-ethanesulfonic acid) in plasma compared to 3APS (of natural abundance)", "setting": "[1]", "result": "much lower"}, {"measurement": "plasma drug concentration compared to 3APS (of natural abundance)", "setting": "[1]", "result": "higher"}, {"measurement": "plasma drug exposure compared to 3APS (of natural abundance)", "setting": "mole-equivalent oral dose (0.72 mmol/kg), mouse plasma", "result": "improved plasma drug exposure significantly"}, {"measurement": "drug metabolism / metabolic profile compared to 3APS", "setting": "mole-equivalent oral dose, mouse", "result": "delayed drug metabolism; also recorded: delayed metabolic profile"}]}]}
